Source: US20240293405A1, “(1H-PYRROLO[2,3-B]PYRIDIN-1-YL)PYRIMIDIN-2-YL-AMINO-PHENYL-ACRYLAMIDE INHIBITORS OF EGFR FOR USE IN THE TREATMENT OF BRAIN TUMORS” (Dana-Farber Cancer Institute, Inc., priority 2021, published 2024)
pIC50: −log10 of the molar value. Several values for one entry are separate records, joined by “and”; a condition that tells them apart may be missing. Equal values may be shown once. Entries after “also recorded” stand apart in the source; their conditions may differ. Read-outs that look alike come from different tables or passages of the source.

Tests used:
[1] = tested on: three primary patient-derived GBM cell lines harboring EGFR amplification and/or mutations; experiment: Cell viability, three patient-derived GBM cell lines (summary); format: cell-based; settings: Homo sapiens; neurosphere culture; read-out: IC50 of cell viability, range over three patient cell lines
Protocol: Cells were seeded in 96-well plates at a density of 1,000 cells per well and treated with two-fold serial dilutions of compounds with a starting concentration of 20 μM. Cell viability was assessed after three days of treatment by CellTiter-Glo (Promega). Curve fitting analysis and IC50 value determination were performed using GraphPad Prism 8.

[2] = tested on: orthotopic U251-EGFRvIII tumors; experiment: Orthotopic U251-EGFRvIII xenograft in mice; format: in vivo, mouse
Protocol: Gefitinib and erlotinib were purchased from Selleck Chemicals. Lapatinib was purchased from MedChemexpress. […] Compound 1 was synthesized by Pharmaron (Wang et al., bioRxiv, 2020.2003.2009.984500). For in vitro studies, compounds were dissolved in DMSO. For in vivo studies, Compound 1 was dissolved in 10% NMP/90% PEG300 and administered by oral gavage at 37.5 mg/kg or 75 mg/kg daily.
Cells (100,000 cells resuspended in 1 μl PBS) were intracranially injected into the right striatum (0 mm anterior, 2 mm lateral, and 2.5 mm ventral to bregma) of 8-10 week-old ICR-SCID mice. Animals were monitored daily for development of neurological defects.
Cells were transduced with lentiviral luciferase (HIV-Luc-zsGreen, addgene #39196). Bioluminescence signals from luciferase-expressing cells in live mice were recorded 10 minutes after intraperitoneal injection of D-luciferin (80 mg/kg) (Gold Biotechnology) with IVIS Lumina III Imaging System (PerkinElmer). The signals were analyzed with Living Image Software (PerkinElmer).
To evaluate the in vivo activity of Compound 1 in GBM with mutant EGFR, U251-EGFRvIII GBM cells expressing luciferase was generated to facilitate monitoring drug response in vivo by bioluminescence-imaging analysis. […]

[3] = Brain and plasma exposure after 5 hour intravenous infusion; format: in vivo, Sprague Dawley rats; settings: for Kp at 5 h / concentration at 5 h / concentration at 0.083 h / concentration at 1 h / concentration at 2 h / concentration at 3 h: 3 mg/kg
Protocol: A single IV infustion for 5 hours was administered to each animal, which were then twice observed clinically (30 minutes to 1 hour post-posing and at the end of the study (TTerminal). Blood samples were collected at 5 time points from each animal over the 5 hour infusion period (5 minutes, 1 hour, 2, hours, 3 hours and TTerminal) and processed to plasma. Brains were collected at Tterminal (blotted, weighed, and snap frozen) and brain exposure was compared. […]

P-gp, Bcrp = experiment: Efflux liability; format: in vitro ADME; settings: Compound 1, own data
Source text: Data obtained in a previously published report on brain penetration of EGFR TKIs in GMB was compared to brain penetrance data described herein (Table 5). […] Each of these drugs, with the exception of vizimpro, appeared to be a substrate of P-gp and Bcrp (efflux transporter proteins).

hERG = hERG (Homo sapiens, UniProt Q12809); experiment: hERG assay (HEK cells); format: cell-based
hERG, sequence (Q12809 whole entry): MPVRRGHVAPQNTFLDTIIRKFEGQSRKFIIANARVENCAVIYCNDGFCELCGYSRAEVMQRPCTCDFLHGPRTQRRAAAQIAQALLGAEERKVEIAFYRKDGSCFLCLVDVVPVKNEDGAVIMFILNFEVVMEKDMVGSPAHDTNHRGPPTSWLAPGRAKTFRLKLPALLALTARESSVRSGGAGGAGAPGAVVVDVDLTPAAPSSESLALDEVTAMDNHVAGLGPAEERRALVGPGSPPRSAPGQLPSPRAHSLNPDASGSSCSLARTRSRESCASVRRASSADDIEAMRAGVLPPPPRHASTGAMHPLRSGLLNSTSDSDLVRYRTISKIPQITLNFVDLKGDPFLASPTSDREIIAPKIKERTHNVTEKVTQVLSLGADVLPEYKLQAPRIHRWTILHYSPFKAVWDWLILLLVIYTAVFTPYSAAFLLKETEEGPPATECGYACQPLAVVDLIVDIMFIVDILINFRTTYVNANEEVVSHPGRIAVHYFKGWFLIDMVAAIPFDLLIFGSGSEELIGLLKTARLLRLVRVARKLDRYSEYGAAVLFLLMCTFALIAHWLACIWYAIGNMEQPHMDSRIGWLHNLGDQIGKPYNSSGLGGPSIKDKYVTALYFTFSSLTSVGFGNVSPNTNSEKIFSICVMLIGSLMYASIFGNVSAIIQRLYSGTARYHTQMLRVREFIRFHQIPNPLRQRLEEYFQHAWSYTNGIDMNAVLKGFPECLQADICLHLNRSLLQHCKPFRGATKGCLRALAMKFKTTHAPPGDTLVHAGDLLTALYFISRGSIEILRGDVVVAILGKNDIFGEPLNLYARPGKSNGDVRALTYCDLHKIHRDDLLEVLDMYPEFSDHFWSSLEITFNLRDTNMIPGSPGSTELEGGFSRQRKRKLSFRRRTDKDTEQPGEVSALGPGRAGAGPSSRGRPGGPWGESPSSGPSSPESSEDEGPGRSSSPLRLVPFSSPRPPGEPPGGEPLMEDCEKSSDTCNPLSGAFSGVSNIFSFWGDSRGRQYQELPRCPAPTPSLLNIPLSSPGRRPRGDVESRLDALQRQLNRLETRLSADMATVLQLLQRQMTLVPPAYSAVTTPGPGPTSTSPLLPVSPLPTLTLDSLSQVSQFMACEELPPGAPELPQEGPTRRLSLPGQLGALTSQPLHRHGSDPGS
Protocol: Compound 1 and/or Compound 2 (active/major metabolite) were evaluated for off-target activity in a large panel of receptors and ion channels, including a human ether-i-go-go-related gene (hERG) assay. Compound 1 was assessed comprehensively in Good Laboratory Practice (GLP) safety pharmacology studies, including studies of cardiovascular, respiratory and central nervous system function.

Caco-2 cells = experiment: Permeation and absorption in Caco-2 cells; format: in vitro ADME
Source text: Further understanding of DDI risk will await definition of Phase 2 doses and exposures.

[4] = Comparative plasma protein binding; format: in vitro ADME; settings: human, monkey, dog, rat, mouse, across species, independent of concentration, read-out: plasma protein bound
Source text: Compound 1 was highly protein bound (95.6 to 98.7%) to plasma protein across species. Binding was independent of concentration.

[5] = tested on: NCI-H1975 cells (EGFR L858R/T790M mutation); experiment: Cell viability assay, NCI-H1975 (CellTiter-Glo); format: cell-based; settings: Homo sapiens; NCI-H1975, 72 hours; read-out: IC50, cell viability
Source text: (§1) CellTier-Glo (Promega) assay kit (https://www.promega.com/resources/protocols/technical-bulletins/0/celltiter-glo-luminescentcell-viability-assay-protocol/) was used here.

[6] = tested on: PC-9 cells (EGFR exon 19 deletion); experiment: Cell viability assay, PC-9 (CellTiter-Glo); format: cell-based; settings: Homo sapiens, PC-9; read-out: IC50, cell viability
Source text: as §1

BT179 cells = experiment: Cell viability, patient-derived GBM line BT179; settings: Homo sapiens, 72 h
Protocol: Primary human glioblastoma lines BT112, BT179 and BT333 were maintained in NeuroCult proliferation medium (human) (StemCell Technologies) with 20 ng/ml EGF, 10 ng/ml FGF and 0.0002% Heparin.

[7] = 3 mg/kg IV infusion over 5 h, 5 h, individual animal, Compound 2 as metabolite in Compound 1-dosed rats
[8] = Sprague Dawley, rat, brain, other: continuous intravenous infusion and oral dosing, rat, estimated steady state by continuous intravenous infusion and oral dosing, read-out: whole brain exposure relative to plasma

For `C=CC(=O)Nc1cc(Nc2nccc(-n3ccc4cccnc43)n2)c(OC)cc1N(C)CCN(C)C` [Compound 1, N-(5-((4-(1H-pyrrolo[2,3-b]pyridin-1-yl)pyrimidin-2-yl)amino)-2-((2-(dimethylamino)ethyl)(methyl)amino)-4-methoxyphenyl)acrylamide], the pIC50 [1] was 5.48 to 6.05, the “body weight during treatment” value ([2]; 37.5 and 75 mg/kg PO QD) was “stable body weight; also recorded: no significant body weight loss” and the “luminescence signals of tumors” value ([2]; 37.5 and 75 mg/kg, dose-dependent) was “reduced the luminescence signals”. For the same molecule, the “Plasma Concentration” value ([3]; 3 mg/kg IV infusion over 5 h, 0.083 h, individual animal, Compound 2 as metabolite in Compound 1-dosed rats) was 14.2 ng/mL and 13.5 ng/mL and 12.8 ng/mL and 13.1 ng/mL and 11.3 ng/mL and 14.3 ng/mL, the “Plasma Concentration” value ([3]; 3 mg/kg IV infusion over 5 h, 1 h, individual animal, Compound 2 as metabolite in Compound 1-dosed rats) was 63.5 ng/mL and 54.8 ng/mL and 59.6 ng/mL and 44.2 ng/mL and 51.1 ng/mL and 63.0 ng/mL and the “Plasma Concentration” value ([3]; 3 mg/kg IV infusion over 5 h, 2 h, individual animal, Compound 2 as metabolite in Compound 1-dosed rats) was 93.4 ng/mL and 84.2 ng/mL and 81.6 ng/mL and 70.7 ng/mL and 71.9 ng/mL and 70.1 ng/mL. The “Plasma Concentration” value ([3]; 3 mg/kg IV infusion over 5 h, 3 h, individual animal, Compound 2 as metabolite in Compound 1-dosed rats) was 95.5 ng/mL and 93.7 ng/mL and 106 ng/mL and 89.5 ng/mL and 94.7 ng/mL and 120 ng/mL, the “Brain Tissue Concentration” value [3, 7] was 2380 ng/g and 2400 ng/g and 2020 ng/g and 2000 ng/g and 1980 ng/g and 2640 ng/g and the “Brain/Plasma (ratios)” value [3, 7] was 18.5 and 20.5 and 18.2. The “Plasma Concentration” value [3, 7] was 107 ng/mL and 120 ng/mL and 109 ng/mL and 97.4 ng/mL and 119 ng/mL, the Kp at 5 h [3, 8] was over 20 and the Kp [3, 8] was 20. It also gave a concentration at 5 h ([3]; male, Sprague Dawley, rat, brain, intravenous, 3 mg/kg IV infusion over 5 h, 5 h, individual animal, Compound 2 as metabolite in Compound 1-dosed rats, read-out: Brain Tissue Concentration) of 2640 ng/g, a concentration at 5 h ([3]; male, Sprague Dawley, rat, brain, intravenous, 3 mg/kg IV infusion over 5 h, 5 h, mean n=6, Compound 2 as metabolite, read-out: Brain Tissue Concentration) of 2240 ng/g and a Kp at 5 h ([3]; male, Sprague Dawley, rat, brain, intravenous, rats with continuous infusion, read-out: brain/plasma ratio) of about 20. The Kp at 5 h ([3]; male, Sprague Dawley, rat, brain, iv, 3 mg/kg IV infusion over 5 h, 5 h, individual animal, Compound 2 as metabolite in Compound 1-dosed rats, read-out: Brain/Plasma (ratios)) was 22.2, the Kp at 5 h ([3]; male, Sprague Dawley, rat, brain, iv, 3 mg/kg IV infusion over 5 h, 5 h, mean n=6, Compound 2 as metabolite, read-out: Brain/Plasma (ratios)) was 20.3 and the concentration at 0.083 h ([3]; male, Sprague Dawley, rat, plasma, intravenous, 3 mg/kg IV infusion over 5 h, 0.083 h, individual animal, Compound 2 as metabolite in Compound 1-dosed rats) was 14.3 ng/mL. For the same molecule, the concentration at 0.083 h ([3]; male, Sprague Dawley, rat, plasma, intravenous, 3 mg/kg IV infusion over 5 h, 0.083 h, mean n=6, Compound 2 as metabolite) was 13.2 ng/mL, the concentration at 1 h ([3]; male, Sprague Dawley, rat, plasma, intravenous, 3 mg/kg IV infusion over 5 h, 1 h, individual animal, Compound 2 as metabolite in Compound 1-dosed rats) was 63 ng/mL and the concentration at 1 h ([3]; male, Sprague Dawley, rat, plasma, intravenous, 3 mg/kg IV infusion over 5 h, 1 h, mean n=6, Compound 2 as metabolite) was 56 ng/mL. It also gave a concentration at 2 h ([3]; male, Sprague Dawley, rat, plasma, intravenous, 3 mg/kg IV infusion over 5 h, 2 h, individual animal, Compound 2 as metabolite in Compound 1-dosed rats) of 70.1 ng/mL, a concentration at 2 h ([3]; male, Sprague Dawley, rat, plasma, intravenous, 3 mg/kg IV infusion over 5 h, 2 h, mean n=6, Compound 2 as metabolite) of 78.7 ng/mL and a concentration at 3 h ([3]; male, Sprague Dawley, rat, plasma, intravenous, 3 mg/kg IV infusion over 5 h, 3 h, individual animal, Compound 2 as metabolite in Compound 1-dosed rats) of 120 ng/mL. The concentration at 3 h ([3]; male, Sprague Dawley, rat, plasma, intravenous, 3 mg/kg IV infusion over 5 h, 3 h, mean n=6, Compound 2 as metabolite) was 99.9 ng/mL, the concentration at 5 h ([3]; male, Sprague Dawley, rat, plasma, intravenous, 3 mg/kg IV infusion over 5 h, 5 h, individual animal, Compound 2 as metabolite in Compound 1-dosed rats, read-out: Plasma Concentration) was 119 ng/mL and the concentration at 5 h ([3]; male, Sprague Dawley, rat, plasma, intravenous, 3 mg/kg IV infusion over 5 h, 5 h, mean n=6, Compound 2 as metabolite, read-out: Plasma Concentration) was 110 ng/mL. For the same molecule, the “Brain Penetration (% of B/P ratio in preclinical model)” value ([3]; own data, infusion in rats) was 2000% (infusion), the “Efflux Liability” value (P-gp, Bcrp) was “Not a substrate” and the pIC50 (hERG) was 5.72. For the same molecule, the “hERG IC100” value (hERG) was about 30 µM, the “permeability in Caco-2 cells” value (Caco-2 cells) was “Moderate permeability” and the “substrate of efflux transporters” value (Caco-2 cells) was “not likely a transporter substrate; also recorded: not likely a substrate of efflux transporters; also recorded: not a likely substrate of efflux transporters”. For the same molecule, the “substrate of efflux transporters” value (Caco-2 cells; listed as Compound 11) was “unlikely that Compound 11 is a substrate of efflux transporters; also recorded: not a substrate”, the fraction unbound [4] was 0.013 to 0.044 and the pIC50 [5] was 7.46. It also gave a pIC50 [6] of 7.20 and a pIC50 (BT179 cells) of 6.05.
